Measured values as given in patent US9416141B2 (University of Washington through its Center for …, priority 2012, dated 2016).
Where a name gives a salt, the structure may show the parent alone.

System: hair cells
Test: Hair cell toxicity assay in zebrafish (neomycin-induced hair cell death, DASPEI staining of neuromasts)
Format: in vivo
Settings: Danio rerio; for Emax at 25 µM: maximum observed @ 25 μM test compound; for EC50: zebrafish larvae 5-7 dpf, 1 h pre-treatment, then 200 micromolar neomycin + test compound 30 min, read-out: HC50 (concentration that would produce 50% hair cell survival); for Emax at 2.8 µM: maximum observed @ 2.8 μM test compound; for Emax at 8.3 µM: maximum observed @ 8.3 μM test compound
Experimental: Zebrafish are bred and newly fertilized embryos are collected the week prior and raised at 28.5° C. in petri dishes containing embryo medium. Newly hatched free-swimming larvae are fed paramecium and dry fish food at 4 days post fertilization (dpf) with lights on. For treatment, fish 5-7 dpf are transferred to cell culture baskets and place within a well of a 6-well plate containing 7 milliliters of 1× embryo medium. Typically, tests are done with ten fish per basket but work well with up to 50 fish. All treatment and wash volumes are 7 milliliters. • 1. Fish are pre-treated with test compound for 1 hour. […] Treat with 200 micromolar neomycin (neomycin sulfate, Sigma, St. Louis, Mo., catalog #N1142)+test compound for 30 minutes. • 3. Rinse fish briefly 4 times in embryo medium and add 700 μl of 0.05% DASPEI (2-{4-(dimethylamino)styryl}-N-ethylpyridinium iodide, Molecular Probes, Eugene, Oreg.) and allowed to stain for 15 minutes. • 4. Rinse twice in embryo medium and add 350 μl MS222 (0.55 ug/ml final concentration, 3-aminobenzoic acid ethyl ester, methansulfoneate salt, Sigma, St. Louis, Mo.) to anesthetize. • 5. View with epifluorescence dissecting microscope equipped with a DAPSEI filter set (excitation […], Chroma Technologies, Brattleboro, Vt.). For assessment of initial dose response curves, fish are transferred to wide depression slide with wide-bore pipette. The DASPEI staining of ten neuromasts (SO1, SO2, IO1, IO2, IO3, IO4, M2, MI1, MI2 and O2) on one side of an animal are evaluated. Each neuromast is scored for presence of DASPEI staining (score=2), reduced DASPEI staining (score=1) or absence of DASPEI staining (score=0). Total scores for an animal are tabulated, to give a composite score that can range from 0 to 20. Average scores and standard deviations are calculated for animals in each treatment group. Scores are normalized to control group (vehicle only, no drug, no neomycin) and expressed as % hair cell survival. HCmax is the maximum protection (hair cell survival) observed. • 6. If at least 50% hair cells survive, the HC50 (concentration that would produce 50% hair cell survival) is calculated as a linear extrapolation from the nearest concentrations of protective drug that produce hair cell survival below and above 50%. If less than 50% hair cells survive, the HC50 is not determined. 1× embryo media (standard lab EM): • 1 mM MgSO4, • 0.15 mM KH2PO4, • 0.05 mM Na2HPO4, • 1 mM CaCl2, • 0.5 mM KCl • 15 mM NaCl • 0.7 mM NaHCO3

[1] = 200 micromolar neomycin, read-out: Max HC Protection (HCmax, % hair cell survival)

| SMILES | Emax at 25 µM [1] | EC50 | further results |
| --- | --- | --- | --- |
| COC(=O)CCC[N+]1(C)CCc2c(sc(NC(=O)Nc3ccc(Cl)cc3)c2C(N)=O)C1 (stereo not shown) [Example 158, 3-Carbamoyl-2-[3-(4-chlorophenyl)ureido]-6-(4-methoxy-4-oxobutyl)-6-methyl-4,5,6,7-tetrahydrothieno[2,3-c]pyridin-6-ium iodide] | 80% | 1000 to 10000 nM | – |
| C[N+]1(C2COC2)CCc2c(sc(NC(=O)Nc3ccc(Cl)cc3)c2C(N)=O)C1 (stereo not shown) [Example 142, 3-Carbamoyl-2-[3-(4-chlorophenyl)ureido]-6-methyl-6-(oxetan-3-yl)-4,5,6,7-tetrahydrothieno[2,3-c]pyridin-6-ium iodide] | 82% | 1000 to 10000 nM | – |
| C[N+]1(CCCC(=O)O)CCc2c(sc(NC(=O)Nc3ccc(Cl)cc3)c2C(N)=O)C1 (stereo not shown) [Example 149, 3-Carbamoyl-6-(3-carboxypropyl)-2-[3-(4-chlorophenyl)ureido]-6-methyl-4,5,6,7-tetrahydrothieno[2,3-c]pyridin-6-ium trifluoroacetate] | 24% | – | – |
| NC(=O)c1c(NC(=O)Nc2ccc(Cl)cc2)sc2c1CCN(CCC(=O)O)C2 [Example 52, 3-{3-Carbamoyl-2-[3-(4-chlorophenyl)ureido]-4,5-dihydrothieno[2,3-c]pyridin-6(7H)-yl}propanoic acid trifluoroacetate] | 33% | – | – |
| NC(=O)c1c(NC(=O)Nc2ccc(Cl)cc2)sc2c1CCN(CCCNC(=O)/C=C/c1ccccc1)C2 [Example 217, 2-{[(4-chlorophenyl)carbamoyl]amino}-6-{3-[(2E)-3-phenylprop-2-enamido]propyl}-4H,5H,6H,7H-thieno[2,3-c]pyridine-3-carboxamide] | – | < 1000 nM | Emax at 2.8 µM [1]: 93% |
| CC(=O)NCCN1CCc2c(sc(NC(=O)Nc3ccc(Cl)cc3)c2C(N)=O)C1 [Example 15, 6-(2-Acetamidoethyl)-2-[3-(4-chlorophenyl)ureido]-4,5,6,7-tetrahydrothieno[2,3-c]pyridine-3-carboxamide trifluoroacetate] | 57% | > 10000 nM | – |
| CCN1CCc2c(sc(NC(=O)Nc3cccc4c3ccn4C)c2C(N)=O)C1 [Example 84, 6-Ethyl-2-[3-(1-methyl-1H-indol-4-yl)ureido]-4,5,6,7-tetrahydrothieno[2,3-c]pyridine-3-carboxamide hydrochloride] | 4% | – | – |
| CCN1CCc2c(sc(NC(=O)Nc3ccc4c(c3)OC(F)(F)O4)c2C(N)=O)C1 [Example 85, 2-[3-(2,2-Difluorobenzo[d][1,3]dioxol-5-yl)ureido]-6-ethyl-4,5,6,7-tetrahydrothieno[2,3-c]pyridine-3-carboxamide hydrochloride] | 63% | 1000 to 10000 nM | – |
| NC(=O)c1c(NC(=O)Nc2ccc(Cl)cc2)sc2c1CC1CCC2N1 (racemic) [Example 122, (+/−)-2-[3-(4-chlorophenyl)ureido]-5,6,7,8-tetrahydro-4H-5,8-epiminocyclohepta[b]thiophene-3-carboxamide hydrochloride] | 91% | < 1000 nM | – |
| NC(=O)c1c(NC(=O)Nc2ccc(Cl)cc2)sc2c1CCN(CCCC(=O)O)C2 [Example 13, 4-{3-Carbamoyl-2-[3-(4-chlorophenyl)ureido]-4,5-dihydrothieno[2,3-c]pyridin-6(7H)-yl}butanoic acid hydrochloride] | – | – | Emax at 8.3 µM [1]: 17% |
| CCN1CCc2c(sc(NC(=O)Nc3ccc(C(=O)O)cc3)c2C(N)=O)C1 [Example 32, 4-[3-(3-Carbamoyl-6-ethyl-4,5,6,7-tetrahydrothieno[2,3-c]pyridin-2-yl)ureido]benzoic acid trifluoroacetate] | 19% | – | – |
| C[N+]1(CCC(N)=O)CCc2c(sc(NC(=O)Nc3ccc(Cl)cc3)c2C(N)=O)C1 (stereo not shown) [Example 157, 6-(3-Amino-3-oxopropyl)-3-carbamoyl-2-[3-(4-chlorophenyl)ureido]-6-methyl-4,5,6,7-tetrahydrothieno[2,3-c]pyridin-6-ium iodide] | 94% | 1000 to 10000 nM | – |
| CCN1CCc2c(sc(NC(=O)Nc3ccc(C(=O)OC)cc3)c2C(N)=O)C1 [Example 31, Methyl 4-[3-(3-carbamoyl-6-ethyl-4,5,6,7-tetrahydrothieno[2,3-c]pyridin-2-yl)ureido]benzoate trifluoroacetate] | 22% | – | – |
| C[N+]1(C)C2CCC1c1sc(NC(=O)Nc3ccc(Cl)cc3)c(C(N)=O)c1C2 (racemic) [Example 188, (+/−)-3-Carbamoyl-2-[3-(4-chlorophenyl)ureido]-9,9-dimethyl-5,6,7,8-tetrahydro-4H-thienocyclohepten-5,8-iminium iodide] | 59% | 1000 to 10000 nM | – |
| NC(=O)c1c(NC(=O)Nc2ccc(I)cc2)sc2c1CCN(CCCOCc1ccccc1)C2 [Example 207] | 66% | 1000 to 10000 nM | – |
| CN1CCCC12CCc1c(sc(NC(=O)Nc3ccc(Cl)cc3)c1C(N)=O)C2 (racemic) [Example 111, (+/−)-2-[3-(4-chlorophenyl)ureido]-1′-methyl-5,7-dihydro-4H-spiro(benzo[b]thiophene-6,2′-pyrrolidine)-3-carboxamide hydrochloride] | – | 1000 to 10000 nM | Emax at 2.8 µM [1]: 55% |
| C[N+]1(CC2CC2)CCc2c(sc(NC(=O)Nc3ccc(Cl)cc3)c2C(N)=O)C1 (stereo not shown) [Example 140, 3-Carbamoyl-2-[3-(4-chlorophenyl)ureido]-6-(cyclopropylmethyl)-6-methyl-4,5,6,7-tetrahydrothieno[2,3-c]pyridin-6-ium iodide] | 92% | < 1000 nM | – |
| CN1CCC(N2CCc3c(sc(NC(=O)Nc4ccc(Cl)cc4)c3C(N)=O)C2)CC1 [Example 8, 2-[3-(4-Chlorophenyl)ureido]-6-(1-methylpiperidin-4-yl)-4,5,6,7-tetrahydrothieno[2,3-c]pyridine-3-carboxamide dihydrochloride] | 84% | > 10000 nM | – |
| NC(=O)c1c(NC(=O)Nc2ccc(Cl)cc2)sc2c1CC[N+]1(CCOCC1)C2 [Example 146, 3′-Carbamoyl-2′-[3-(4-chlorophenyl)ureido]-5′,7′-dihydro-4′H-spiro[morpholine-4,6′-thieno[2,3-c]pyridin]-4-ium iodide] | 96% | 1000 to 10000 nM | – |
| NC(=O)c1c(NC(=O)Nc2ccc(Cl)cc2)sc2c1CCOC2 [Example 92, 2-[3-(4-Chlorophenyl)ureido]-5,7-dihydro-4H-thieno[2,3-c]pyran-3-carboxamide] | – | – | Emax at 2.8 µM [1]: 22% |
| CN1C2CCC1c1sc(NC(=O)Nc3ccc(C(=O)c4ccccc4)cc3)c(C(N)=O)c1C2 (racemic) [Example 126, (+/−)-2-[3-(4-Benzoylphenyl)ureido]-9-methyl-5,6,7,8-tetrahydro-4H-5,8-epiminocyclohepta[b]thiophene-3-carboxamide hydrochloride] | – | – | Emax at 2.8 µM [1]: 41% |
| CCN1CCc2c(sc(NC(=O)Nc3ccc4ncccc4c3)c2C(N)=O)C1 [Example 79, 6-Ethyl-2-[3-(quinolin-6-yl)ureido]-4,5,6,7-tetrahydrothieno[2,3-c]pyridine-3-carboxamide dihydrochloride] | – | – | Emax at 0.3 µM (maximum observed @ 0.3 μM test compound, 200 micromolar neomycin, read-out: Max HC Protection (HCmax, % hair cell survival)): 34% |
| CC(C)(C)CN1CCc2c(sc(NC(=O)Nc3ccc(Cl)c4ccccc34)c2C(N)=O)C1 [Example 41, 2-[3-(4-Chloronaphthalen-1-yl)ureido]-6-neopentyl-4,5,6,7-tetrahydrothieno[2,3-c]pyridine-3-carboxamide hydrochloride] | – | – | Emax at 8.3 µM [1]: 39% |
| CC(C)NC(=O)CCC[N+]1(C)CCc2c(sc(NC(=O)Nc3ccc(Cl)cc3)c2C(N)=O)C1 (stereo not shown) [Example 166, 3-Carbamoyl-2-[3-(4-chlorophenyl)ureido]-6-[4-(isopropylamino)-4-oxobutyl]-6-methyl-4,5,6,7-tetrahydrothieno[2,3-c]pyridin-6-ium trifluoroacetate] | – | 1000 to 10000 nM | Emax at 2.8 µM [1]: 63% |
| CC12CCC(C)(N1)c1sc(NC(=O)Nc3ccc(Cl)cc3)c(C(N)=O)c1C2 (racemic) [Example 123, (+/−)-2-[3-(4-Chlorophenyl)ureido]-5,8-dimethyl-5,6,7,8-tetrahydro-4H-5,8-epiminocyclohepta[b]thiophene-3-carboxamide trifluoroacetate] | – | < 1000 nM | Emax at 2.8 µM [1]: 60% |
